Data reported in ChEMBL document CHEMBL4033793, “Potent and Selective Inhibitors of Human Sirtuin 5” (J Med Chem, 2018).
Residues, ends and D or L forms follow the SMILES beside them. *: point of attachment. X13 = O=C(O)[C@@H](CC(=O)*)SCc1cccc([N+](=O)[O-])c1; X15 = CC(C)(C)c1ccc(CS[C@H](CC(=O)*)C(=O)O)cc1; X16 = O=C(O)[C@H](CC(=O)*)SCc1ccc(Cl)c(Cl)c1; X17 = O=C(O)[C@@H](CC(=O)*)Sc1cc(Cl)cc(Cl)c1; X11 = O=C(O)[C@H](CC(=O)*)SCc1cccc2ccccc12; X18 = O=C(O)[C@@H](CC(=O)*)Sc1c(Cl)cccc1Cl; X3 = O=C(O)[C@H](CC(=O)*)Sc1ccc(Cl)c(Cl)c1; X10 = Cc1noc(C)c1CCS[C@H](CC(=O)*)C(=O)O; X14 = O=C(O)[C@H](CC(=O)*)SCc1ccc(Cl)cc1; X22 = COc1ccc(CS[C@H](CC(=O)*)C(=O)O)cc1; X6 = Cc1noc(C)c1CCS[C@@H](CC(=O)*)C(=O)O; X19 = O=C(O)[C@H](CC(=O)*)Sc1ccc(Cl)cc1; X21 = O=C(O)[C@@H](CC(=O)*)SC1CCCCC1; X8 = O=C(O)[C@H](CC(=O)*)Sc1ccccc1; X12 = O=C(O)C(CC(=O)*)SCCc1cnccn1; X5 = O=C(O)C(CC(=O)*)SCCc1ccccn1; X7 = O=C(O)C(CC(=O)*)SCCc1ccncc1; X4 = O=C(O)C(CC(=O)*)Cc1ccccc1; Bz = O=C(c1ccccc1)*

The compounds below were run against NAD-dependent protein deacylase sirtuin-5, mitochondrial (Homo sapiens, UniProt Q9NXA8) (assay: Inhibition of human recombinant N-terminal Strep2-tagged SIRT5 expressed in Escherichia coli BL21 (DE3) using Abz-GVLK(glutaryl)AY(NO2)GV-NH2 as substrate in presence of NAD+ by fluorescence assay).
Chain of NAD-dependent protein deacylase sirtuin-5, mitochondrial (Q9NXA8 whole entry): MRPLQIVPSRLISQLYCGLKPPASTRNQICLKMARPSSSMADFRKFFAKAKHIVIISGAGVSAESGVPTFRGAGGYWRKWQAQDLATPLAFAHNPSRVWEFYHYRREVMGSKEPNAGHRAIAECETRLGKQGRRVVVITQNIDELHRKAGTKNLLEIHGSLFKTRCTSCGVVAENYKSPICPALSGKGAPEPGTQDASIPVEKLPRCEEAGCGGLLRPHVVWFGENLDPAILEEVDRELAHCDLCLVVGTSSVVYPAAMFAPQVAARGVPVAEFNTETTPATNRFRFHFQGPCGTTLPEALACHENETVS

Row | Compound | IC50 [µM] | Ki [µM]
1 | C=CCN1C(=O)/C(=C/c2ccc(-c3cccc(Cl)c3Cl)o2)C(=O)NC1=S | 25.2 | –
2 | O=C(C[C@H](Sc1ccc2ccccc2c1)C(=O)O)NCCCc1ccccc1 | 72.6 | –
3 | O=C(C[C@H](Sc1ccc2ccccc2c1)C(=O)O)Nc1ccccc1 | 157 | –
4 | CC(=O)N[C@@H](CC(C)C)C(=O)N[C@@H](CCCCNC(=O)C[C@H](Sc1ccc2ccccc2c1)C(=O)O)C(=O)N[C@@H](C)C(N)=O | 0.35 | –
5 | CC(=O)N[C@@H](CCCCNC(=O)C[C@H](Sc1ccc2ccccc2c1)C(=O)O)C(N)=O | 7.4 | –
6 | CNC(=O)c1cccc(NC(=O)C[C@H](Sc2ccc3ccccc3c2)C(=O)O)c1 | 90 | –
7 | CC(=O)N[C@@H](CC(C)C)C(=O)N[C@@H](CCCCNC(=O)CC(Sc1ccc2ccccc2c1)C(=O)O)C(=O)N[C@@H](C)C(N)=O (some centres not stated) | 1.08 | –
8 | O=C(C[C@H](Sc1ccc2ccccc2c1)C(=O)O)NCc1ccccc1 | 124 | –
9 | CCCCNC(=O)C[C@H](Sc1ccc2ccccc2c1)C(=O)O | 154 | –
10 | CC(C)C[C@H](NC(=O)[C@@H](NC(=O)CNC(=O)c1ccccc1)C(C)C)C(=O)N[C@@H](CCCCNC(=O)C[C@H](Sc1ccc(Cl)c(Cl)c1)C(=O)O)C(=O)N[C@@H](CCC(=O)O)C(=O)N[C@@H](Cc1ccc(O)cc1)C(=O)NCC(=O)N[C@H](C(N)=O)C(C)C (Bz-GVLK(X3)EYGV-NH2) | 0.0459 | 0.023
11 | CC(C)C[C@H](NC(=O)[C@@H](NC(=O)CNC(=O)c1ccccc1)C(C)C)C(=O)N[C@@H](CCCCNC(=O)CC(Cc1ccccc1)C(=O)O)C(=O)N[C@@H](CCC(=O)O)C(=O)N[C@@H](Cc1ccc(O)cc1)C(=O)NCC(=O)N[C@H](C(N)=O)C(C)C (some centres not stated) (Bz-GVLK(X4)EYGV-NH2) | 1.12 | 0.263
12 | CC(C)C[C@H](NC(=O)[C@@H](NC(=O)CNC(=O)c1ccccc1)C(C)C)C(=O)N[C@@H](CCCCNC(=O)CC(SCCc1ccccn1)C(=O)O)C(=O)N[C@@H](CCC(=O)O)C(=O)N[C@@H](Cc1ccc(O)cc1)C(=O)NCC(=O)N[C@H](C(N)=O)C(C)C (some centres not stated) (Bz-GVLK(X5)EYGV-NH2) | 6.97 | –
13 | Cc1noc(C)c1CCS[C@@H](CC(=O)NCCCC[C@H](NC(=O)[C@H](CC(C)C)NC(=O)[C@@H](NC(=O)CNC(=O)c1ccccc1)C(C)C)C(=O)N[C@@H](CCC(=O)O)C(=O)N[C@@H](Cc1ccc(O)cc1)C(=O)NCC(=O)N[C@H](C(N)=O)C(C)C)C(=O)O (Bz-GVLK(X6)EYGV-NH2) | 8.75 | –
14 | CC(C)C[C@H](NC(=O)[C@@H](NC(=O)CNC(=O)c1ccccc1)C(C)C)C(=O)N[C@@H](CCCCNC(=O)CC(SCCc1ccncc1)C(=O)O)C(=O)N[C@@H](CCC(=O)O)C(=O)N[C@@H](Cc1ccc(O)cc1)C(=O)NCC(=O)N[C@H](C(N)=O)C(C)C (some centres not stated) (Bz-GVLK(X7)EYGV-NH2) | 13.2 | –
15 | CC(C)C[C@H](NC(=O)[C@@H](NC(=O)CNC(=O)c1ccccc1)C(C)C)C(=O)N[C@@H](CCCCNC(=O)C[C@H](Sc1ccccc1)C(=O)O)C(=O)N[C@@H](CCC(=O)O)C(=O)N[C@@H](Cc1ccc(O)cc1)C(=O)NCC(=O)N[C@H](C(N)=O)C(C)C (Bz-GVLK(X8)EYGV-NH2) | 0.274 | 0.135
16 | Cc1noc(C)c1CCS[C@H](CC(=O)NCCCC[C@H](NC(=O)[C@H](CC(C)C)NC(=O)[C@@H](NC(=O)CNC(=O)c1ccccc1)C(C)C)C(=O)N[C@@H](CCC(=O)O)C(=O)N[C@@H](Cc1ccc(O)cc1)C(=O)NCC(=O)N[C@H](C(N)=O)C(C)C)C(=O)O (Bz-GVLK(X10)EYGV-NH2) | 18.5 | –
17 | CC(C)C[C@H](NC(=O)[C@@H](NC(=O)CNC(=O)c1ccccc1)C(C)C)C(=O)N[C@@H](CCCCNC(=O)C[C@H](SCc1cccc2ccccc12)C(=O)O)C(=O)N[C@@H](CCC(=O)O)C(=O)N[C@@H](Cc1ccc(O)cc1)C(=O)NCC(=O)N[C@H](C(N)=O)C(C)C (Bz-GVLK(X11)EYGV-NH2) | 0.0154 | 0.007
18 | CC(C)C[C@H](NC(=O)[C@@H](NC(=O)CNC(=O)c1ccccc1)C(C)C)C(=O)N[C@@H](CCCCNC(=O)CC(SCCc1cnccn1)C(=O)O)C(=O)N[C@@H](CCC(=O)O)C(=O)N[C@@H](Cc1ccc(O)cc1)C(=O)NCC(=O)N[C@H](C(N)=O)C(C)C (some centres not stated) (Bz-GVLK(X12)EYGV-NH2) | 22.8 | 0.0035 to 0.011
19 | CC(C)C[C@H](NC(=O)[C@@H](NC(=O)CNC(=O)c1ccccc1)C(C)C)C(=O)N[C@@H](CCCCNC(=O)C[C@@H](SCc1cccc([N+](=O)[O-])c1)C(=O)O)C(=O)N[C@@H](CCC(=O)O)C(=O)N[C@@H](Cc1ccc(O)cc1)C(=O)NCC(=O)N[C@H](C(N)=O)C(C)C (Bz-GVLK(X13)EYGV-NH2) | 2.67 | –
20 | CC(C)C[C@H](NC(=O)[C@@H](NC(=O)CNC(=O)c1ccccc1)C(C)C)C(=O)N[C@@H](CCCCNC(=O)C[C@H](SCc1ccc(Cl)cc1)C(=O)O)C(=O)N[C@@H](CCC(=O)O)C(=O)N[C@@H](Cc1ccc(O)cc1)C(=O)NCC(=O)N[C@H](C(N)=O)C(C)C (Bz-GVLK(X14)EYGV-NH2) | 0.893 | –
21 | CC(C)C[C@H](NC(=O)[C@@H](NC(=O)CNC(=O)c1ccccc1)C(C)C)C(=O)N[C@@H](CCCCNC(=O)C[C@@H](SCc1ccc(C(C)(C)C)cc1)C(=O)O)C(=O)N[C@@H](CCC(=O)O)C(=O)N[C@@H](Cc1ccc(O)cc1)C(=O)NCC(=O)N[C@H](C(N)=O)C(C)C (Bz-GVLK(X15)EYGV-NH2) | 1.24 | –
22 | CC(C)C[C@H](NC(=O)[C@@H](NC(=O)CNC(=O)c1ccccc1)C(C)C)C(=O)N[C@@H](CCCCNC(=O)C[C@H](SCc1ccc(Cl)c(Cl)c1)C(=O)O)C(=O)N[C@@H](CCC(=O)O)C(=O)N[C@@H](Cc1ccc(O)cc1)C(=O)NCC(=O)N[C@H](C(N)=O)C(C)C (Bz-GVLK(X16)EYGV-NH2) | 0.74 | –
23 | CC(C)C[C@H](NC(=O)[C@@H](NC(=O)CNC(=O)c1ccccc1)C(C)C)C(=O)N[C@@H](CCCCNC(=O)C[C@@H](Sc1cc(Cl)cc(Cl)c1)C(=O)O)C(=O)N[C@@H](CCC(=O)O)C(=O)N[C@@H](Cc1ccc(O)cc1)C(=O)NCC(=O)N[C@H](C(N)=O)C(C)C (Bz-GVLK(X17)EYGV-NH2) | 0.647 | –
24 | CC(C)C[C@H](NC(=O)[C@@H](NC(=O)CNC(=O)c1ccccc1)C(C)C)C(=O)N[C@@H](CCCCNC(=O)C[C@@H](Sc1c(Cl)cccc1Cl)C(=O)O)C(=O)N[C@@H](CCC(=O)O)C(=O)N[C@@H](Cc1ccc(O)cc1)C(=O)NCC(=O)N[C@H](C(N)=O)C(C)C (Bz-GVLK(X18)EYGV-NH2) | 12.5 | –
25 | CC(C)C[C@H](NC(=O)[C@@H](NC(=O)CNC(=O)c1ccccc1)C(C)C)C(=O)N[C@@H](CCCCNC(=O)C[C@H](Sc1ccc(Cl)cc1)C(=O)O)C(=O)N[C@@H](CCC(=O)O)C(=O)N[C@@H](Cc1ccc(O)cc1)C(=O)NCC(=O)N[C@H](C(N)=O)C(C)C (Bz-GVLK(X19)EYGV-NH2) | 0.102 | –
26 | CC(C)C[C@H](NC(=O)[C@@H](NC(=O)CNC(=O)c1ccccc1)C(C)C)C(=O)N[C@@H](CCCCNC(=O)C[C@@H](SC1CCCCC1)C(=O)O)C(=O)N[C@@H](CCC(=O)O)C(=O)N[C@@H](Cc1ccc(O)cc1)C(=O)NCC(=O)N[C@H](C(N)=O)C(C)C (Bz-GVLK(X21)EYGV-NH2) | > 14 | –
27 | COc1ccc(CS[C@H](CC(=O)NCCCC[C@H](NC(=O)[C@H](CC(C)C)NC(=O)[C@@H](NC(=O)CNC(=O)c2ccccc2)C(C)C)C(=O)N[C@@H](CCC(=O)O)C(=O)N[C@@H](Cc2ccc(O)cc2)C(=O)NCC(=O)N[C@H](C(N)=O)C(C)C)C(=O)O)cc1 (Bz-GVLK(X22)EYGV-NH2) | 1.11 | –
